For 17 molecules, MIC and IC50 results are on record in US8124744B2, “Macrolide derivatives” (Taisho Pharmaceutical Co., Ltd., priority 2006, dated 2012).

The structures appear in SMILES notation. Values after ≈ are worked out from the molar mass of the structure shown. Like-named read-outs stand apart in the source and are kept apart here.

Test [1] relates to Staphylococcus aureus ATCC29213. The test is described as follows: Minimal inhibitory concentration (MIC). The class given is cell-based. The procedure: (§1) To 7- to 9-week male C57BL/6J mice (purchased from CLEA Japan, Inc. or Japan SLC, Inc.), Zymosan A (SIGMA) derived from budding yeasts which is adjusted to be 1 mg/ml in a phosphate buffer solution (PBS, 10010-49, Invitrogen) was administered intraperitoneally at 1 ml per mouse to induce peritonitis. Three days later, filter-sterilized cell recovery buffer (2 mM EDTA, 0.5% bovine serum albumin, PBS, pH 7.4) was administered intraperitoneally at 5 ml per mouse to recover peritoneal exudata cells. The cells went through a cell strainer (70 μm nylon, FALCON) and were then washed twice with a Hanks solution (Invitrogen). The cells were suspended in 10% fetal calf serum-containing Dulbecco's modified Eagle's culture medium (Invitrogen). The suspension was seeded on a plate with 48 wells, after 6 hours, the culture medium was completely exchanged. After culturing for another 18 hours, test compounds were added at 0.02 to 20 μM of the final concentration. After 1 hour from the addition of the compounds, a tumor necrosis factor (TNF) α (R & D Systems) was added at 25 ng/ml of the final concentration, and 24 hours later, the culture supernatant was collected. The amount of pro MMP-9 protein in the supernatant was quantified by an enzyme-linked immunosorbent assay (ELISA) (R & D Systems), IC50 values of the test compounds on the increased amount by TNF α stimuli, were calculated by ORIGIN analysis software (trade name: OriginLab). In addition, minimal inhibitory concentration (MIC) of each test compounds (measured bacterium: Staphylococcus aureus ATCC29213) was measured. As a comparative agent […] A (clarithromycin) was used.

The subject of another test is pro MMP-9 protein. As to the kind of experiment: Inhibitory activity against proMMP-9 protein production (TNF α-stimulated mouse peritoneal exudate cells, ELISA). The class given is cell-based, C57BL/6J mice. The procedure:
as §1

Where [2] appears, read: relative activity when the value of Comparative Agent 1 (IC50 = 10.04 ± 4.11 μM) is 10, on the increase of pro MMP-9 by TNF α 25 ng/ml, 24 hours, read-out: IC50 (μM)*.

As to `CC[C@H]1OC(=O)[C@H](C)[C@@H](O[C@H]2C[C@@](C)(OC)[C@@H](OC(C)=O)[C@H](C)O2)[C@H](C)[C@@H](O[C@@H]2O[C@H](C)C[C@@H](N3CCCC(O)C3)[C@@H]2N(C)C)[C@@](C)(OC)C[C@@H](C)C(=O)[C@H](C)[C@@H](O)[C@]1(C)O` (mixture of isomers) [Example 196, 4″-O-acetyl-3′-dedimethylamino-2′-deoxy-2′-dimethylamino-3-((±)-3-hydroxypiperidin-1-yl)-6-O-methylerythromycin A], the MIC in test [1] was over 128 µg/mL. The concentration for half-maximal inhibition (IC50) with pro MMP-9 protein (setting [2]) stood at 2.51 µM.
`CC[C@H]1OC(=O)[C@H](C)[C@@H](O[C@H]2C[C@@](C)(OC)[C@@H](O)[C@H](C)O2)[C@H](C)[C@@H](O[C@@H]2O[C@H](C)C[C@H](N(C)C)[C@H]2O)[C@](C)(OC)C[C@@H](C)C(=O)[C@H](C)[C@@H](O)[C@]1(C)O` [Comparative Agent 1, 6-O-methylerythromycin A, reference compound]: in test [1], it took 0.25 µg/mL (≈ 0.334 µM) to inhibit growth (MIC). For the same molecule, the IC50 with pro MMP-9 protein (actual value of Comparative Agent 1 (table footnote), not normalised, read-out: IC50) is 10 µM; in the test with pro MMP-9 protein (setting [2]) it was 10 µM.
Take `CC[C@H]1OC(=O)[C@H](C)[C@@H](O[C@H]2C[C@@](C)(OC)[C@@H](O)[C@H](C)O2)[C@H](C)[C@@H](O[C@@H]2O[C@H](C)C[C@H](N(C)C)[C@H]2OC)[C@@](C)(OC)C[C@@H](C)[C@H](N)[C@H](C)[C@@H](O)[C@]1(C)O` [Compound T of Example 142, 9-deoxo-9-(S)-amino-6,2′-di-O-methylerythromycin A]: in test [1], the MIC was over 128 µg/mL. Besides, the IC50 in the test on pro MMP-9 protein (setting [2]) is 8.88 µM.
In the same order, the values of `CC[C@H]1OC(=O)[C@H](C)[C@@H](O[C@H]2C[C@@](C)(OC)[C@@H](OC(C)=O)[C@H](C)O2)[C@H](C)[C@@H](O[C@@H]2O[C@H](C)C[C@H](N(C)C)[C@H]2OC)[C@@](C)(OC)C[C@@H](C)[C@H](OC(=O)CCN(C)C)[C@H](C)[C@@H](O)[C@]1(C)O` [Compound V of Example 147, 4″-O-acetyl-9-deoxo-9-(S)-(3-dimethylaminopropionyloxy)-6,2′-di-O-methylerythromycin A] are over 128 µg/mL and 2.61 µM.
The molecule `CC[C@H]1OC(=O)[C@H](C)[C@@H](O[C@H]2C[C@@](C)(OC)[C@@H](OC(C)=O)[C@H](C)O2)[C@H](C)[C@@H](O[C@@H]2O[C@H](C)C[C@H](N(C)C)[C@H]2OC)[C@@](C)(OC)C[C@@H](C)[C@H](OC(=O)CCN(C)C)[C@H](C)[C@@H](OC(=O)CCN(C)C)[C@]1(C)O` [Compound W of Example 147, 4″-O-acetyl-9-deoxo-9-(S)-(3-dimethylaminopropionyloxy)-11-O-(3-dimethylaminopropionyl)-6,2′-di-O-methylerythromycin A] had an MIC in test [1] of over 128 µg/mL. In the test on pro MMP-9 protein (setting [2]), the concentration for half-maximal inhibition (IC50) is 6.56 µM.
`CC[C@H]1OC(=O)[C@H](C)[C@@H](O[C@H]2C[C@@](C)(OC)[C@@H](OC(C)=O)[C@H](C)O2)[C@H](C)[C@@H](O[C@@H]2O[C@H](C)C[C@@H](N3CC[C@H](O)C3)[C@@H]2N(C)C)[C@@](C)(OC)C[C@@H](C)C(=O)[C@H](C)[C@@H](O)[C@]1(C)O` [Compound X of Example 200, 4″-O-acetyl-3′-dedimethylamino-2′-deoxy-2′-dimethylamino-3′-((S)-3-hydroxypyrrolidin-1-yl)-6-O-methylerythromycin A] registered an MIC in test [1] of over 128 µg/mL. For the same molecule, the half-maximal inhibitory concentration (IC50) in the test with pro MMP-9 protein (setting [2]) worked out at 2.03 µM.
`CC[C@H]1OC(=O)[C@H](C)[C@@H](O[C@H]2C[C@@](C)(OC)[C@@H](OC(C)=O)[C@H](C)O2)[C@H](C)[C@@H](O[C@@H]2O[C@H](C)C[C@@H](N3CC[C@@H](O)C3)[C@@H]2N(C)C)[C@@](C)(OC)C[C@@H](C)C(=O)[C@H](C)[C@@H](O)[C@]1(C)O` [Compound Y of Example 200, 4″-O-acetyl-3′-dedimethylamino-2′-deoxy-2′-dimethylamino-3′-((R)-3-hydroxypyrrolidin-1-yl)-6-O-methylerythromycin A] showed a minimum inhibitory concentration (MIC) in test [1] of over 128 µg/mL. For the same molecule, in the test with pro MMP-9 protein (setting [2]), the 50% inhibitory concentration (IC50) was 3.02 µM.
Take `CC[C@H]1OC(=O)[C@H](C)[C@@H](O)[C@H](C)[C@@H](O[C@@H]2O[C@H](C)C[C@H](N(C)Cc3ccccc3)[C@H]2O)[C@@](C)(O)C[C@@H](C)CN(C)[C@H](C)[C@@H](O)[C@]1(C)O` [Example 20, 5-O-(3′-N-demethyl-3′-N-benzyl)desosaminyl-9-deoxo-9a-aza-9a-methyl-9a-homoerythronolide A]: in test [1], the MIC was over 128 µg/mL. Also, in the test with pro MMP-9 protein (setting [2]), the IC50 was 0.83 µM.
In the same order, the values of `CC[C@H]1OC(=O)[C@H](C)[C@@H](O[C@H]2C[C@@](C)(OC)[C@@H](O)[C@H](C)O2)[C@H](C)[C@@H](O[C@@H]2O[C@H](C)C[C@H](N(C)C)[C@H]2OCCCc2ccccc2)[C@@](C)(OC)C[C@@H](C)C(=O)[C@H](C)[C@@H](O)[C@]1(C)O` [Example 24, 2′-O-(3-phenylpropyl)-6-O-methylerythromycin A] are over 64 µg/mL and 0.38 µM.
In the same order, the values of `CC[C@H]1OC(=O)[C@H](C)[C@@H](O[C@H]2C[C@@](C)(OC)[C@@H](O)[C@H](C)O2)[C@H](C)[C@@H](O[C@@H]2O[C@H](C)C[C@H](N(C)C)[C@H]2OC)[C@@](C)(OC)C[C@@H](C)C(=O)[C@H](C)[C@@H](O)[C@]1(C)O` [Example 31, 6,2′-di-O-methylerythromycin A] are over 128 µg/mL and 4.08 µM.
As for `CC[C@H]1OC(=O)[C@H](C)[C@@H](O)[C@H](C)[C@@H](O[C@@H]2O[C@H](C)C[C@H](N(C)Cc3cccc(OC)c3)[C@H]2O)[C@@](C)(OC)C[C@@H](C)C(=O)[C@H](C)[C@H]2NC(=O)O[C@@]21C` [Example 65, 11-amino-11-deoxy-5-O-(3′-N-demethyl-3′-N-(3-methoxybenzyl)desosaminyl)-6-O-methylerythronolide A 11,12-cyclic carbamate], the IC50 with pro MMP-9 protein (setting [2]) turned out to be 1.37 µM.
Regarding `CC[C@H]1OC(=O)[C@H](C)[C@@H](O[C@H]2C[C@@](C)(OC)[C@@H](O)[C@H](C)O2)[C@H](C)[C@@H](O[C@@H]2O[C@H](C)C[C@@H](N3CCN(C)CC3)[C@@H]2N(C)C)[C@@](C)(OC)C[C@@H](C)C(=O)[C@H](C)[C@H]2NC(=O)O[C@@]21C` [Example 89, 11-amino-3′-dedimethylamino-11,2′-dideoxy-2′-dimethylamino-3′-(4-methylpiperazin-1-yl)-6-O-methylerythromycin A 11,12-cyclic carbamate], the MIC in test [1] is over 128 µg/mL. Moreover, the IC50 in the test with pro MMP-9 protein (setting [2]) came out at 1.59 µM.
Take `CC[C@H]1OC(=O)[C@H](C)[C@@H](O[C@H]2C[C@@](C)(OC)[C@@H](OC(C)=O)[C@H](C)O2)[C@H](C)[C@@H](O[C@@H]2O[C@H](C)C[C@@H](N3CCOCC3)[C@@H]2N(C)C)[C@@](C)(OC)C[C@@H](C)C(=O)[C@H](C)[C@H]2NC(=O)O[C@@]21C` [Example 95, 4″-O-acetyl-11-amino-3′-dedimethylamino-11,2′-dideoxy-2′-dimethylamino-3′-(4-morpholino)-6-O-methylerythromycin A 11,12-cyclic carbamate]: the minimum inhibitory concentration (MIC) in test [1] is over 128 µg/mL. The concentration for half-maximal inhibition (IC50) with pro MMP-9 protein (setting [2]) turned out to be 4.36 µM.
`CC[C@H]1OC(=O)[C@H](C)[C@@H](O[C@H]2C[C@@](C)(OC)[C@@H](O)[C@H](C)O2)[C@H](C)[C@@H](O[C@@H]2O[C@H](C)C[C@@H](N3CCCCC3)[C@@H]2N(C)C)[C@@](C)(OC)C[C@@H](C)C(=O)[C@H](C)[C@@H](O)[C@]1(C)O` [Example 101, 3′-dedimethylamino-2′-deoxy-2′-dimethylamino-3′-(1-piperidino)-6-O-methylerythromycin A] returned a minimal inhibitory concentration (MIC) in test [1] of over 128 µg/mL. The concentration for half-maximal inhibition (IC50) in the test with pro MMP-9 protein (setting [2]) worked out at 0.62 µM.
In turn, `CC[C@H]1OC(=O)[C@H](C)[C@@H](O[C@H]2C[C@@H](C)[C@H](O)[C@](C)(OC)O2)[C@H](C)[C@@H](O[C@@H]2O[C@H](C)C[C@H](N(C)CCN(C)C)[C@H]2OC)[C@@](C)(OC)C[C@@H](C)C(=O)[C@H](C)[C@@H](O)[C@]1(C)O` [Example 104, 3′-N-demethyl-3′-N-(2-dimethylaminoethyl)-6,2′-di-O-methylerythromycin A] displayed an MIC in test [1] of over 128 µg/mL. Further, in the test with pro MMP-9 protein (setting [2]), the half-maximal inhibitory concentration (IC50) amounted to 5 µM.
For the molecule `CCO[C@H]1[C@H](O[C@@H]2[C@@H](C)[C@H](O[C@@H]3C[C@@](C)(OC)[C@@H](O)[C@H](C)O3)[C@@H](C)C(=O)O[C@H](CC)[C@@](C)(O)[C@H](O)[C@@H](C)C(=O)[C@H](C)C[C@]2(C)OC)O[C@H](C)C[C@@H]1N(C)C` [Example 105, 2′-O-ethyl-6-O-methylerythromycin A], the minimal inhibitory concentration (MIC) in test [1] was over 128 µg/mL. In addition, in the test with pro MMP-9 protein (setting [2]), the IC50 was 4.38 µM.
In the same order, the values of `CC[C@H]1OC(=O)[C@H](C)[C@@H](O[C@H]2C[C@@](C)(OC)[C@@H](O)[C@H](C)O2)[C@H](C)[C@@H](O[C@@H]2O[C@H](C)C[C@H](N(C)C)[C@H]2OCCCN(C)C)[C@@](C)(OC)C[C@@H](C)C(=O)[C@H](C)[C@@H](O)[C@]1(C)O` [Example 115, 2′-O-(3-dimethylaminopropyl)-6-O-methylerythromycin A] are over 128 µg/mL and 3.88 µM.
